# PubChem BioAssay AID2060351 (Molecular Pharmacology Branch, DTP, NCI, 2025)
# Values joined by “and” are separate entries in the source; they are usually repeats but may differ in a detail not shown here. Equal entries are not always repeated.
# System: 521955-158-R7-J2-PDC spheroids, viability % test/control
# Assay: Anticancer human tumor 521955-158-R7-J2-PDC patient-derived pancreatic carcinoma cell line growth inhibition [TAK]
# Details: spheroids with HUVEC and MSC; for viability, T/C: stronger effect = lower value
# Summary of the method: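 Spheroids of 60% malignant cells, 25% HUVEC and 15% hMSC were exposed to targeted agents combined with TAK-243 or ipatasertib. Concentrations started at or near clinical Cmax (10 microM if unknown) and descended in half-log steps.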
# [1] = curve of first compound, second compound 0.3 µM
# [2] = curve of first compound, second compound 0.949 µM
# [3] = curve of first compound, second compound 3 µM
# [4] = curve of first compound, second compound 9.49 µM
# [5] = curve of first compound, second compound 30 µM
# [6] = second compound 0.3 µM, first compound 0.00316 µM
# [7] = second compound 0.3 µM, first compound 0.01 µM
# [8] = second compound 0.949 µM, first compound 0.00316 µM
# [9] = second compound 0.949 µM, first compound 0.01 µM
# [10] = second compound 3 µM, first compound 0.00316 µM
# [11] = second compound 3 µM, first compound 0.01 µM
# [12] = second compound 9.49 µM, first compound 0.00316 µM
# [13] = second compound 9.49 µM, first compound 0.01 µM
# [14] = second compound 30 µM, first compound 0.00316 µM
# [15] = second compound 30 µM, first compound 0.01 µM
# 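Further: spheroids exposed to compound for 7 days before readout.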
# 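Wherever viability, T/C is given: 100% = DMSO vehicle control wells.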
smiles,measurement,setting,value
CC(C)CC(NC(=O)C(Cc1ccccc1)NC(=O)c1cnccn1)B(O)O (stereo unspecified) + CC(C)NCC(C(=O)N1CCN(c2ncnc3c2C(C)CC3O)CC1)c1ccc(Cl)cc1,IC50,[1],5.61 nM
same,IC50,[2],5.38 nM
same,IC50,[3],5.61 nM
same,IC50,[4],5.21 nM
same,IC50,[5],5.09 nM
same,"viability, T/C","second compound 0.3 µM, first compound 31.6 pM",113%
same,"viability, T/C","second compound 0.3 µM, first compound 0.0001 µM",87.5%
same,"viability, T/C","second compound 0.3 µM, first compound 0.000316 µM",92%
same,"viability, T/C","second compound 0.3 µM, first compound 0.001 µM",104%
same,"viability, T/C",[6],92.7%
same,"viability, T/C",[7],6.67%
same,"viability, T/C","second compound 0.949 µM, first compound 31.6 pM",94.7%
same,"viability, T/C","second compound 0.949 µM, first compound 0.0001 µM",82.4%
same,"viability, T/C","second compound 0.949 µM, first compound 0.000316 µM",77.3%
same,"viability, T/C","second compound 0.949 µM, first compound 0.001 µM",82.8%
same,"viability, T/C",[8],92.2%
same,"viability, T/C",[9],8.18%
same,"viability, T/C","second compound 3 µM, first compound 31.6 pM",93.4%
same,"viability, T/C","second compound 3 µM, first compound 0.0001 µM",101%
same,"viability, T/C","second compound 3 µM, first compound 0.000316 µM",86.6%
same,"viability, T/C","second compound 3 µM, first compound 0.001 µM",84.9%
same,"viability, T/C",[10],93.1%
same,"viability, T/C",[11],7.99%
same,"viability, T/C","second compound 9.49 µM, first compound 31.6 pM",92.7%
same,"viability, T/C","second compound 9.49 µM, first compound 0.0001 µM",95.9%
same,"viability, T/C","second compound 9.49 µM, first compound 0.000316 µM",68.7%
same,"viability, T/C","second compound 9.49 µM, first compound 0.001 µM",80%
same,"viability, T/C",[12],82.7%
same,"viability, T/C",[13],7.48%
same,"viability, T/C","second compound 30 µM, first compound 31.6 pM",86.8%
same,"viability, T/C","second compound 30 µM, first compound 0.0001 µM",83.7%
same,"viability, T/C","second compound 30 µM, first compound 0.000316 µM",75.4%
same,"viability, T/C","second compound 30 µM, first compound 0.001 µM",78%
same,"viability, T/C",[14],84.1%
same,"viability, T/C",[15],5.06%
CCCS(=O)(=O)Nc1ccc(F)c(C(=O)c2c[nH]c3ncc(-c4ccc(Cl)cc4)cc23)c1F,"viability, T/C",compound 0.316 µM,98.6% and 98.4%
same,"viability, T/C",compound 1 µM,97.2% and 95.1%
same,"viability, T/C",compound 3.16 µM,94.6% and 78.2%
same,"viability, T/C",compound 10 µM,108% and 71%
same,"viability, T/C",compound 31.6 µM,82.2% and 67.9%
same,"viability, T/C",compound 100 µM,90.6% and 82.5%
same,IC50,curve of compound,> 100000 nM
CC(C)n1nc(-c2ccc3oc(N)nc3c2)c2c(N)ncnc21,"viability, T/C",compound 0.000316 µM,78.4% and 94.7%
same,"viability, T/C",compound 0.001 µM,79.4% and 104%
same,"viability, T/C",compound 0.00316 µM,81.2% and 82.3%
same,"viability, T/C",compound 0.01 µM,86.4% and 90.7%
same,"viability, T/C",compound 0.0316 µM,76% and 109%
same,"viability, T/C",compound 0.1 µM,71.2% and 53.7%
same,IC50,curve of compound,> 100 nM
CC(C)(C)c1nc(-c2cccc(NS(=O)(=O)c3c(F)cccc3F)c2F)c(-c2ccnc(N)n2)s1,"viability, T/C",compound 0.0316 µM,105% and 103%
same,"viability, T/C",compound 0.1 µM,113% and 78.3%
same,"viability, T/C",compound 0.316 µM,99% and 128%
same,"viability, T/C",compound 1 µM,101% and 131%
same,"viability, T/C",compound 3.16 µM,104% and 97.7%
same,"viability, T/C",compound 10 µM,79% and 93.3%
same,IC50,curve of compound,> 10000 nM
COc1c(OCCCN2CCOCC2)ccc2c3n(c(=NC(=O)c4cnc(N)nc4)nc12)CCN3 + CC(C)NCC(C(=O)N1CCN(c2ncnc3c2C(C)CC3O)CC1)c1ccc(Cl)cc1,IC50,[1],21.9 nM
same,IC50,[2],22 nM
same,IC50,[3],7.21 nM
same,IC50,[4],6.2 nM
same,IC50,[5],3.38 nM
same,"viability, T/C",[6],102%
same,"viability, T/C",[7],67.6%
same,"viability, T/C","second compound 0.3 µM, first compound 0.0316 µM",40.9%
same,"viability, T/C","second compound 0.3 µM, first compound 0.1 µM",27.5%
same,"viability, T/C","second compound 0.3 µM, first compound 0.316 µM",13.7%
same,"viability, T/C","second compound 0.3 µM, first compound 1 µM",11%
same,"viability, T/C",[8],81%
same,"viability, T/C",[9],66.5%
same,"viability, T/C","second compound 0.949 µM, first compound 0.0316 µM",43.1%
same,"viability, T/C","second compound 0.949 µM, first compound 0.1 µM",19.6%
same,"viability, T/C","second compound 0.949 µM, first compound 0.316 µM",13.7%
same,"viability, T/C","second compound 0.949 µM, first compound 1 µM",9.02%
same,"viability, T/C",[10],55%
same,"viability, T/C",[11],51.1%
same,"viability, T/C","second compound 3 µM, first compound 0.0316 µM",29.2%
same,"viability, T/C","second compound 3 µM, first compound 0.1 µM",24.9%
same,"viability, T/C","second compound 3 µM, first compound 0.316 µM",13%
same,"viability, T/C","second compound 3 µM, first compound 1 µM",10.4%
same,"viability, T/C",[12],64.3%
same,"viability, T/C",[13],36.3%
same,"viability, T/C","second compound 9.49 µM, first compound 0.0316 µM",31%
same,"viability, T/C","second compound 9.49 µM, first compound 0.1 µM",21.7%
same,"viability, T/C","second compound 9.49 µM, first compound 0.316 µM",14.3%
same,"viability, T/C","second compound 9.49 µM, first compound 1 µM",12.2%
same,"viability, T/C",[14],50.4%
same,"viability, T/C",[15],40.6%
same,"viability, T/C","second compound 30 µM, first compound 0.0316 µM",27.8%
same,"viability, T/C","second compound 30 µM, first compound 0.1 µM",19.8%
same,"viability, T/C","second compound 30 µM, first compound 0.316 µM",17.1%
same,"viability, T/C","second compound 30 µM, first compound 1 µM",11.5%
